{"source": "paper PMC8459971", "about": "“Evaluation of the hepatotoxicity of the novel GPR40 (FFAR1) agonist CPL207280 in the rat and monkey” (PLoS ONE, 2021)", "origin": "cited, not measured here", "key": {"NTCP": {"target": "T1, NTCP (Homo sapiens, UniProt Q14973)", "T1 construct": "expressed in transfected cells; host or cells: HEK cells", "T1 sequence (Q14973 1-349)": "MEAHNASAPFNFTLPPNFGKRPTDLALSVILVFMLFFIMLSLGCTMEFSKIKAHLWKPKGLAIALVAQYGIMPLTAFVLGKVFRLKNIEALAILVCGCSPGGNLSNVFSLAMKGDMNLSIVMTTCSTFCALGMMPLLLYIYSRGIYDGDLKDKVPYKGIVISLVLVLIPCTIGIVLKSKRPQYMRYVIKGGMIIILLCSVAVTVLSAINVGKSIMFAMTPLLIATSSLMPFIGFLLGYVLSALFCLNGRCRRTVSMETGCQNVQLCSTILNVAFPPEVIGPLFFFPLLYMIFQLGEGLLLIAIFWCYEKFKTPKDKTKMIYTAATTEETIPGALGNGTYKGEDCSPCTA", "conditions": "read-out: Inhibition of NTCP, previously reported IC50; cited from earlier work"}, "hepatocytes": {"system": "hepatocytes", "conditions": "read-out: IC50, hepatocyte toxicity, cited from earlier work"}}, "note": "Read-outs that look alike come from different tables or passages of the source.", "data": [{"smiles": "Cc1cc(OCCCS(C)(=O)=O)cc(C)c1-c1cccc(COc2ccc3c(c2)OC[C@H]3CC(=O)O)c1", "note": "[TAK-875, fasiglifam, reference compound]", "values": [{"measurement": "IC50", "setting": "NTCP", "value": 4.6, "unit": "µM"}, {"measurement": "IC50", "setting": "hepatocytes; time of incubation 24 h", "value": 68, "unit": "µM"}, {"measurement": "IC50", "setting": "hepatocytes; time of incubation 48 h", "value": 56, "unit": "µM"}]}]}
